The source of these data is patent US20230285570A1, “THERAPEUTICALLY USEFUL CURE-PRO MOLECULES FOR E3 LIGASE MEDIATED DEGRADATION OF PROTEINS, AND METHODS OF MAKING AND USING THEM” (CORNELL UNIVERSITY, priority 2020, published 2023).

Assay [1] concerns the target T1, BRD4 (Homo sapiens, UniProt O60885). Kind of assay: Summary of BRD4 degradation by CURE-PRO pairs, estimated from Western Blot or WES. It is filed as cell-based. More on the design: endogenous in cells. The conditions noted are these: for Degradation of BRD4, combination with CRBN ligand 8048: Table 4, aromatic 1,2-diol BRD4 ligand + 8048; for Degradation of BRD4, combination with CRBN ligand 8047: Table 1, aryl-boronic acid BRD4 ligand + 8047; for Degradation of BRD4, combination with CRBN ligand 8066: Table 1, aryl-boronic acid BRD4 ligand + 8066; for Degradation of BRD4, combination with CRBN ligand 8046: Table 1, aryl-boronic acid BRD4 ligand + 8046; for Degradation of BRD4, combination with VHL ligand 8305: Table 3, aryl-boronic acid BRD4 ligand + 8305. On the procedure: (§1) Namalwa, Ramosm HeLa, MCF7, or HT29 HCT116 cells (2.5-3×10^6) were treated for 24 hours with the indicated compounds solubilized in DMSO. The cells were washed in ice-cold PBS and were then lysed in RIPA lysis buffer (150 mM NaCl, 5 mM EDTA, 1% NP-40, 0.5% sodium deoxycholate, 0.1% SDS, 50 mM Tris, pH 8.0.) with Roche protease inhibitor complete cocktail and phosphatase inhibitors (10 mM sodium fluoride, 10 mM sodium pyrophosphate, 1 mM sodium orthovanadate and 20 mM β-glycerophosphate). The total protein concentrations were determined by Bradford Protein Assay (Pierce) and 10-20 μg of protein was loaded onto 4-15% Tris-Glycine gradient gels (Biorad). After standard gel electrophoresis, the separated proteins were transferred to PVDF membrane by wet transfer. The immunoblots were then blocked for 1 hour in 5% skim milk in TBST or 5% BSA in TBST, according to manufacturer's instructions, before an overnight incubation at 4° C. with indicated antibodies and membranes. Membranes were then incubated with the appropriate horseradish peroxidase-conjugated secondary antibodies (1:5,000 dilution) for 1 h at room temperature and the bands were visualized using the Clarity Max Western ECL Substrate (Biorad) and the ChemiDoc Imaging System (Biorad). Signal was detected with ECL Western Blotting Substrate (Pierce) and X-ray film processed with a Konica SRX-101 X-ray film processor or captured by Bio-Rad's Chemidoc Imaging system.
WES Simple analysis was performed on WES system (ProteinSimple-Biotechne) according to the manufacturer's instructions. Total protein concentrations of cell lysates were determined by the Pierce BCA kit (Thermo Fisher). 3 μL of 0.3 μg/μL of the protein lysate was loaded onto a 12- to 230-kDa WES assay plate (ProteinSimple) where 300 nL sample was withdrawn through a capillary, subjected to electrophoretic separation of proteins by size, and followed by the simultaneous, HRP-based detection of proteins using the Anti-Rabbit Detection Module (Proteinsimple: #DM-001). The electropherograms were checked then the automatic peak detection was manually corrected if it was required.
A black check mark indicates efficacy of 30% to 70% or higher protein degradation.

Assay [2] has as its target T1, BRD4. As to the kind of experiment: CURE-PRO-mediated BRD4 degradation in HeLa cells, Western blot. It is filed as cell-based. More on the design: endogenous in cells; host or cells: HeLa. The conditions noted are these: 24 h. On the procedure: All cell lines were purchased from ATCC or DSMZ and grown at 37° C. with 5% CO2. Human HeLa cells were cultured in complete growth medium (Dulbecco's modified Eagle's medium (DMEM) supplemented with 10% FBS); MCF7 cells were cultured in complete growth medium (Dulbecco's modified Eagle's medium (DMEM) supplemented with 10% FBS and 0.01 mg/ml human recombinant insulin (Sigma Aldrich); Namalwa and Ramos cells were cultured in complete growth medium (RPMI 1640 medium supplemented with 10% FBS); HCT116 and HT29 cells were cultured in complete growth medium (McCoy's 5a Medium supplemented with 10% FBS). For cellular degradation of BRD4 studies cells were seeded in a 12-well plate at 70-80% confluency, allowed to attach overnight, and incubated with the indicated compounds for the indicated time. When indicated, a 15-minute pretreatment with 10 μM pomalidomide, 10 μM VHL298, 10 μM Nutlin3a, 1 μM MG-132 or 1 μM Carfilzomib was performed before the addition of CURE-PROs. For washout studies, after CURE-PRO treatment, media was aspirated and incubated with complete medium for the indicated time before lysis.
as §1
HeLa cells (2.5×10^6) were treated for 24 hours with the sample compounds solubilized in DMSO. Compounds were added at 1-10 μM each. Standardized protein samples were electrophoresed and imaged as described in the immunoblotting description above. FIGS. 6-18 depicts the CURE-PRO-mediated BRD4 degradation for BRD monomers (JQ1 derivatives comprising of catechol linkers), and CRBN ligands, 8048 and 8049 (pomalidomide derivatives comprising boronic acid linkers) combined in a 1:1 ratio.
HeLa cells (2.5×10^6) were treated for 24 hours with the compounds solubilized in DMSO. The compounds were added at 10 μM each. Standardized protein samples were electrophoresed and imaged as described in the immunoblotting section above. FIGS. 23-27 depicts the CURE-PRO-mediated BRD4 degradation for BRD monomers (JQ1 derivatives comprising of boronic acid linkers), and CRBN ligands, 8046, 8047 and 8066 (pomalidomide derivatives comprising diol linkers) combined in a 1:1 ratio.
HeLa cells (2.5×10^6) were treated for 24 hours with the compounds solubilized in DMSO. Compounds were added at 10 μM and 100 μM each. Standardized protein samples were electrophoresed and imaged as described in the immunoblotting section above.
HeLa cells (2.5×10^6) were treated for 24 hours with the compounds solubilized in DMSO. Compounds were added at 1 nM-1 μM each. […]
A general note: In western blotting, separated proteins are transferred to a membrane and probed.

The mark [3] stands for this setting: BRD4 monomer alone, HeLa, 1-10 μM.
[4] abbreviates: co-treated 1:1 with CRBN ligand 8048, HeLa, 1-10 μM each.
[5] abbreviates: co-treated 1:1 with CRBN ligand 8049, HeLa, 1-10 μM each.

“Also recorded” adds a separate entry of the source.

Regarding `COc1ccc2c(c1)C(c1ccc(Cl)cc1)=N[C@@H](CC(=O)NCCOCCOCCOCCNC(=O)c1ccc(O)c(O)c1)c1nnc(C)n1-2` [BRD-N44], the “Degradation of BRD4, combination with CRBN ligand 8048” value (shortened to “Degradation … with CRBN ligand 8048”) in assay [1] is reported as “√ (A black check mark indicates efficacy of 30% to 70% or higher protein degradation)”. Further, the results for the BRD4 degradation entry in assay [2] (setting [3]) and in assay [2] (setting [4]) were “there is no degradation of BRD4” and “causes degradation of BRD4”, respectively.
For the compound `COc1ccc2c(c1)C(c1ccc(Cl)cc1)=N[C@@H](CC(=O)NCCNC(=O)/C=C/c1cccc(B(O)O)c1)c1nnc(C)n1-2` [BRD-E30, (3-((E)-3-((2-(2-((4S)-6-(4-chlorophenyl)-8-methoxy-1-methyl-4H-benzo[f][1,2,4]triazolo[4,3-a][1,4]diazepin-4-yl)acetamido)ethyl)amino)-3-oxoprop-1-en-1-yl)phenyl)boronic acid], in assay [1], the “Degradation of BRD4, combination with CRBN ligand 8047” value (shortened to “Degradation … with CRBN ligand 8047”) is recorded as “√ (A black check mark indicates efficacy of 30% to 70% or higher protein degradation)” and the “Degradation of BRD4, combination with CRBN ligand 8066” value (shortened to “Degradation … with CRBN ligand 8066”) was “√ (A black check mark indicates efficacy of 30% to 70% or higher protein degradation)”.
In the case of `CCNC(=O)C[C@@H]1N=C(c2ccc(Cl)cc2)c2cc(OCCOCCOCCOCCOCCOCCNC(=O)c3cccc(O)c3O)ccc2-n2c(C)nnc21` [BRD-N71, N-(17-(((4S)-6-(4-chlorophenyl)-4-(2-(ethylamino)-2-oxoethyl)-1-methyl-4H-benzo[f][1,2,4]triazolo[4,3-a][1,4]diazepin-8-yl)oxy)-3,6,9,12,15-pentaoxaheptadecyl)-2,3-dihydroxybenzamide], the “Degradation … with CRBN ligand 8048” value in assay [1] is given as “√ (A black check mark indicates efficacy of 30% to 70% or higher protein degradation)”. The “Degradation of BRD4, combination with MDM2 ligand 8312” value in assay [1] (Table 5, aromatic 1,2-diol BRD4 ligand + 8312) was “√ (A black check mark indicates efficacy of 30% to 70% or higher protein degradation)”. The BRD4 degradation result is “there is no degradation of BRD4” in assay [2] (setting [3]); “causes degradation of BRD4; also recorded: Some selectivity for BRD-N71 and 8048 is noted” in assay [2] (setting [4]); “no evidence of BRD4 degradation” in assay [2] (setting [5]).
As to `COc1ccc2c(c1)C(c1ccc(Cl)cc1)=N[C@@H](CC(=O)Nc1ccc(O)c(O)c1)c1nnc(C)n1-2` [BRD- N68], the “Degradation … with CRBN ligand 8048” value in assay [1] is “√ (A black check mark indicates efficacy of 30% to 70% or higher protein degradation)”.
On to `COc1ccc2c(c1)C(c1ccc(Cl)cc1)=N[C@@H](CC(=O)NCCOCCOCCOCCOCCNC(=O)c1ccc(O)c(O)c1)c1nnc(C)n1-2` [BRD-N69], for which the “Degradation … with CRBN ligand 8048” value in assay [1] was “√ (A black check mark indicates efficacy of 30% to 70% or higher protein degradation)”. Also, the BRD4 degradation result in assay [2] (setting [3]) is “there is no degradation of BRD4”; in assay [2] (setting [4]), “causes degradation of BRD4; also recorded: Degradation is noted”; in assay [2] (setting [5]), “no evidence of BRD4 degradation”.
On to `COc1ccc2c(c1)C(c1ccc(Cl)cc1)=N[C@@H](CC(=O)NCCCCNC(=O)c1ccc(O)c(O)c1)c1nnc(C)n1-2` [BRD-N5], for which, in assay [1], the “Degradation … with CRBN ligand 8048” value is given as “√ (A black check mark indicates efficacy of 30% to 70% or higher protein degradation)”. For the same compound, the BRD4 degradation result is reported as “there is no degradation of BRD4” in assay [2] (setting [3]), “causes degradation of BRD4; also recorded: Degradation is noted” in assay [2] (setting [4]) and “no evidence of BRD4 degradation” in assay [2] (setting [5]).
With `COc1ccc2c(c1)C(c1ccc(Cl)cc1)=N[C@@H](CC(=O)NCc1cccc(B(O)O)c1)c1nnc(C)n1-2` [BRD-E10], in assay [1], the “Degradation of BRD4, combination with CRBN ligand 8046” value was “√ (A black check mark indicates efficacy of 30% to 70% or higher protein degradation)” and the “Degradation … with CRBN ligand 8047” value was “√ (A black check mark indicates efficacy of 30% to 70% or higher protein degradation)”. Also, the “Degradation of BRD4, combination with VHL ligand 8304” value in assay [1] (Table 3, aryl-boronic acid BRD4 ligand + 8304) is listed as “√ (A black check mark indicates efficacy of 30% to 70% or higher protein degradation)”. Also, the BRD4 degradation result in assay [2] (1:1 with CRBN ligand 8046, HeLa, 10 μM and 100 μM each) is reported as “only demonstrated BRD4 degradation at 100 μM”. In addition, in assay [2] (1:1 with CRBN ligand 8047, HeLa, 10 μM and 100 μM each), the BRD4 degradation result is on record as “complete degradation at 10 μM”.
`CCNC(=O)C[C@@H]1N=C(c2ccc(Cl)cc2)c2cc(OCCOCCNC(=O)c3ccc(B(O)O)cc3)ccc2-n2c(C)nnc21` [BRD- E39]: the “Degradation of BRD4, combination with CRBN ligand 8046” value in assay [1] is reported as “√ (A black check mark indicates efficacy of 30% to 70% or higher protein degradation)”.
In the case of `COc1ccc2c(c1)C(c1ccc(Cl)cc1)=N[C@@H](CC(=O)NCCNC(=O)c1ccc(O)c(O)c1)c1nnc(C)n1-2` [BRD-N1], in assay [1], the “Degradation … with CRBN ligand 8048” value is listed as “√ (A black check mark indicates efficacy of 30% to 70% or higher protein degradation)”. Also, the results for the BRD4 degradation entry in assay [2] (setting [3]) and in assay [2] (setting [4]) were “there is no degradation of BRD4” and “causes degradation of BRD4; also recorded: Degradation is noted”, respectively.
In the case of `COc1ccc2c(c1)C(c1ccc(Cl)cc1)=N[C@@H](CC(=O)NCCOCCOCCNC(=O)c1ccc(B(O)O)cc1)c1nnc(C)n1-2` [BRD-E45], in assay [1], the “Degradation … with CRBN ligand 8066” value is “√ (A black check mark indicates efficacy of 30% to 70% or higher protein degradation)” and the “Degradation of BRD4, combination with VHL ligand 8305” value is on record as “√ (A black check mark indicates efficacy of 30% to 70% or higher protein degradation)”. Besides, the BRD4 degradation result in assay [2] (co-treated 1:1 with CRBN ligand 8066, HeLa, 10 μM each) is reported as “causes degradation of BRD4”.
As to `COc1ccc2c(c1)C(c1ccc(Cl)cc1)=N[C@@H](CC(=O)NCCCCCNC(=O)c1ccc(B(O)O)cc1)c1nnc(C)n1-2` [BRD- E07], in assay [1], the “Degradation … with CRBN ligand 8066” value is listed as “√ (A black check mark indicates efficacy of 30% to 70% or higher protein degradation)”.
With `COc1ccc2c(c1)C(c1ccc(Cl)cc1)=N[C@@H](CC(=O)NCCNC(=O)Cc1cccc(B(O)O)c1)c1nnc(C)n1-2` [BRD- E38], in assay [1], the “Degradation … with CRBN ligand 8047” value is given as “√ (A black check mark indicates efficacy of 30% to 70% or higher protein degradation)”.
Turning to `CCNC(=O)C[C@@H]1N=C(c2ccc(OCc3ccc(B(O)O)cc3)cc2)c2cc(OC)ccc2-n2c(C)nnc21` [BRD- E54], the “Degradation of BRD4, combination with VHL ligand 8305” value in assay [1] was “√ (A black check mark indicates efficacy of 30% to 70% or higher protein degradation)”.
In the case of `CCNC(=O)C[C@@H]1N=C(c2ccc(Cl)cc2)c2cc(OCCOCCOCCNC(=O)c3ccc(O)c(O)c3)ccc2-n2c(C)nnc21` [BRD- N40], the “Degradation of BRD4, combination with VHL ligand 8297” value in assay [1] (Table 6, aromatic 1,2-diol BRD4 ligand + 8297) was “√ (A black check mark indicates efficacy of 30% to 70% or higher protein degradation)”.
